Consider three compounds from patent US9750778B2, “Terminalia chebula and Terminalia bellirica extracts for inhibition of xanthine oxidase” (priority 2013, dated 2017).

Where “and” joins values, the source holds several entries; their conditions need not be identical. Identical values can stand only once. Marks after values point to notes of the source that are not given here.

The subject of one data set is hyperuricemic patients. Kind of data set: Safety and tolerability assessment in the clinical study. The conditions noted are these: 8 weeks treatment; 13 patients per group; extracts 500 mg BID, febuxostat 40 mg OD. It counts as in vivo, human. The method, then: Secondary objective: To evaluate the safety and tolerability of Terminalia chebula and Terminalia bellerica in hyperuricemic patients.
Safety lab investigations for hematological, hepatic and renal biochemical parameters were done at baseline and at the end of the study (8 weeks) and also as and when required (in case of any adverse drug reaction (ADR)). Subjects were interviewed for the presence of ADR and the same was recorded in the case report form (CRF). Compliance to therapy was assessed by pill count method.
The subsequent 2 visits were scheduled at 4 weeks interval (visit 3—after 4 weeks of treatment, visit 4—after 8 weeks of treatment), vital signs, general examination; serum uric acid levels were measured. Pill count for study medication was evaluated. At the (prospective) conclusion of the study, Visit 5 (after 12 weeks post treatment), vital signs, general examination, serum uric acid, routine safety lab investigations will be performed. […] Adverse Effects/SAE monitoring would be done throughout the course of study. Safety lab parameters will be done before and after treatment and as and when required. […]
2. Measurements of Tolerability will be assessed at the end of 8 weeks/12 weeks as: Good—no side effects; Fair—mild to moderate side effects; and/or Poor—severe side effects and withdrawal of therapy.

Data set [1] has as its system serum uric acid levels in patients with hyperuricemia. Kind of data set: Randomized, double blind, placebo controlled clinical study on serum uric acid levels. The following applies: extracts 500 mg BID oral, febuxostat 40 mg OD, Mean±SD. It counts as in vivo, human. The method, then:
A randomized, double blind, placebo controlled, parallel-group study was performed to evaluate the effect of Terminalia chebula and Terminalia bellerica in comparison to Febuxostat and a placebo on serum uric acid levels in patients with hyperuricemia. The present study was a prospective, randomized, double blinded, placebo controlled trial. A total of 52 patients were enrolled to receive the study treatment in a randomized manner. The study was approved by the Institutional Ethics Committee and all the subjects gave written informed consent prior to their participation in the study. Hyperuricemia patients of either gender aged between 18 and 70 years were selected, with serum uric acid level ≧6.0 mg/dL and ≦12.0 mg/dL after having stopped all uric acid-lowering therapy for at least 10 days. Patients who were willing to comply with the requirements of the study and to give voluntary, written informed consent were enrolled into the study. Patients with a gout flare during screening or baseline visit were excluded. Patients currently using aspirin or other NSAIDS, diuretics, other medications with known urate-lowering effects were also excluded from the study. Patients with history or presence of nephrolithiasis or uncontrolled hypertension or diabetes, hepatic and renal impairment, pregnant or lactating females or secondary hyperuricemia (e.g. due to myeloproliferative disorder, or organ transplant) were excluded. After screening, all the eligible patients were randomized to either of the four treatment groups in a double blinded fashion for duration of 8 weeks, prospectively 12 weeks. Group 1—Terminalia chebula 500 mg—1 capsule of 500 mg orally twice a day (BID) after food. Group 2—Terminalia bellerica 500 mg—1 capsule of 500 mg orally twice a day (BID) after food. Group 3—Febuxostat—1 tablet of 40 mg (encapsulated in a similar capsule to that of Terminalia chebula/Terminalia bellerica/placebo capsules) once daily (OD) orally in the morning after food and an identical placebo capsule in the evening after food. […] At each visit they were evaluated for efficacy measurements and safety assessments. Serum uric acid levels were measured at baseline, end of 4 weeks, and end of 8 weeks. […] The subsequent 2 visits were scheduled at 4 weeks interval (visit 3—after 4 weeks of treatment, visit 4—after 8 weeks of treatment), vital signs, general examination; serum uric acid levels were measured. Pill count for study medication was evaluated. […] Study data is expressed as Mean±SD. Primary and secondary outcome measures were analyzed as the mean percentage reduction and absolute change in serum uric acid levels from baseline to 4 weeks, 8 weeks, and (prospectively) 12 weeks of treatment. […]

A further data set concerns 5-LOX. The conditions noted are these: cited from earlier work.
A further data set has as its target maltase. The following applies: reversible and non-competitive inhibitor; read-out: K(i) value, maltase; cited from earlier work.
Another data set concerns HepG2 cells. The following applies: cited from earlier work.
The subject of a further data set is COX-1. The following applies: cited from earlier work.
Another data set deals with T1, COX-2 (Homo sapiens, UniProt P35354).
T1 sequence (P35354 18-604): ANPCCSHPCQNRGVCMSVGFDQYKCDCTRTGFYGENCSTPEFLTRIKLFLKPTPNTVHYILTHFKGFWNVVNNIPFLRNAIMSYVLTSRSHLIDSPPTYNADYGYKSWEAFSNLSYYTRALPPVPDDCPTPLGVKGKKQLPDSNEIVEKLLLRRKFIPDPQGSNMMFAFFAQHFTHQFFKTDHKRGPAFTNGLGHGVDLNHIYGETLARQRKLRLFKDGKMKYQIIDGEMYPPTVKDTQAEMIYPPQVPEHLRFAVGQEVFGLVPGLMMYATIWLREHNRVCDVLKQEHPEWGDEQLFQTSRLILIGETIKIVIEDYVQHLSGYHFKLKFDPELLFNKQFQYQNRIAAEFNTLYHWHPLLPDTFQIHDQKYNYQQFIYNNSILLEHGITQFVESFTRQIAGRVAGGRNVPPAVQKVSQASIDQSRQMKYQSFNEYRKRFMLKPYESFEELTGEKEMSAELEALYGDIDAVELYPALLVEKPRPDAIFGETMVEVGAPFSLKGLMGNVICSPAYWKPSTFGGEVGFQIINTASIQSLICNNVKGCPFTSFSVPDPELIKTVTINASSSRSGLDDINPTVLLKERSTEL
The conditions noted are these: cited from earlier work.

The subject of another data set is xanthine oxidase (XO). Briefly: Superoxide radical scavenging assay by NBT hypoxanthine/XO method. The class given is biochemical. The following applies: for % Control (superoxide generation by XO): water blank = 100. On the procedure: One T. chebula (TC) based extract was tested at three different dilutions of 5, 25 and 50 μg/mL, and one T. bellerica (TB) based extract was tested at the same three dilutions. Standard positive control was allopurinol (AP) tested at 1, 5 and 10 μg/mL. […] Stock solutions of test materials were prepared at 20 mg/ml in water (TB and TC) or immediately prior to the experiment. Further dilutions were made in type I sterile water and the effect of test materials on XO-mediated free radical (superoxide) generation was assessed as previously described ([…] al., 2008), using hypoxanthine/XO/NBT (tetrazolium salt) system with the reaction product (formazan) followed at 570 nm with the BioRad microplate spectrophotometer 3550-UV. Allopurinol (AP) was the positive control, double-distilled water was the negative control (blank). P values representing statistical significance were calculated using paired t-test and threshold of statistical significance was fixed at p=0.05 and at least 15% difference as compared to the water control.

Where [2] appears, read: from baseline, negative = decrease.

For `Cc1nc(-c2ccc(OCC(C)C)c(C#N)c2)sc1C(=O)O` [Febuxostat], in the data set on hyperuricemic patients, the Adverse effects reported entry was “Two patients in the Febuxostat group had elevated mildly elevated total bilirubin and 1 patient had complained of nausea and vomiting”. Also, in data set [1] (13 patients per group), the “Serum Uric Acid level at the end of 4 weeks” value turned out to be 7.23 ± 0.72 mg/dL and the “Serum Uric Acid level at the end of 8 weeks” value came out at 6.08 ± 0.6 mg/dL. In addition, in data set [1] (setting [2]), the “Mean Percentage Reduction in Serum Uric Acid Level after 8 weeks” value was −29.58 ± 5.74 % and the “Mean Percentage Reduction in Serum Uric Acid at the end of 4 weeks” value is −16.31 ± 5.32*^NS %.

On to “beta-1-O-galloyl-2,4-chebuloyl-3,6-(R)-hexahydroxydiphenoyl-D-glucose [Chebulagic acid]”, for which the figures for the IC50 in the data set on 5-LOX, in the data set on COX-1 and on COX-2 were 2.1 ± 0.057 µM, 15 ± 0.288 µM and 0.92 ± 0.011 µM, respectively. Moreover, the Ki on maltase was 6.6 µM. The “Enhancement of the cytotoxicity of doxorubicin” value with HepG2 cells was 20 fold.

Take `Oc1ncnc2[nH]ncc12` [AP, allopurinol]: the “ED50 (dose required for 50% inhibition of XO)” value in the data set with xanthine oxidase (XO) was 6 µg/mL. For the same compound, the “% Control (superoxide generation by XO)” value with xanthine oxidase (XO) (test material at 1 μg/ml) was 89%; in the data set on xanthine oxidase (XO) (test material at 5 μg/ml), 54%; in the data set on xanthine oxidase (XO) (test material at 10 μg/ml), 43%.
